# Read-outs that look alike come from different tables or passages of the source.
# Key:
# Test in all cases: In vitro MIC, broth dilution
# Assay type in all cases: cell-based
# E. coli GC 2203 = conditions: Escherichia coli, GC2203; E. coli GC 2203; read-out: MIC
# C. albicans GC 3066 = conditions: Candida albicans, GC3066; C. albicans GC 3066; read-out: MIC
# E. coli GC 3226 = conditions: Escherichia coli, GC3226; E. coli GC 3226; read-out: MIC
# P. aeruginosa GC 4532 = conditions: Pseudomonas aeruginosa, GC4532; P. aeruginosa GC 4532; read-out: MIC
# K. pneumoniae GC 4534 = conditions: Klebsiella pneumoniae, GC4534; K. pneumoniae GC 4534; read-out: MIC
# CNS GC 4538 = tested on: CNS GC 4538
# Summary of the method: (§1)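 Organisms were inoculated at 5×10^5 CFU/ml into Mueller-Hinton II containing antibiotic at 64-0.06 μg/ml, then incubated 18 hours at 35° C in ambient air. The MIC was the lowest concentration that inhibited growth.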
# E. faecalis GC 4555 = conditions: Enterococcus faecalis, GC4555; E. faecalis GC 4555; read-out: MIC
# Summary of the method: as §1
# E. faecalis GC 2242 = conditions: Enterococcus faecalis, GC2242; E. faecalis GC 2242; read-out: MIC
# Summary of the method: as §1
# CNS GC 4547 = tested on: CNS GC 4547
# Summary of the method: as §1
# CNS GC 4537 = tested on: CNS GC 4537
# Summary of the method: as §1
# S. aureus GC 4536 = conditions: Staphylococcus aureus, GC4536; S. aureus GC 4536; read-out: MIC
# Summary of the method: as §1
# S. aureus GC 1131 = conditions: Staphylococcus aureus, GC1131; S. aureus GC 1131; read-out: MIC
# Summary of the method: as §1
# S. aureus GC 2216 = conditions: Staphylococcus aureus, GC2216; S. aureus GC 2216; read-out: MIC
# Summary of the method: as §1
# E. faecalis GC 842 = conditions: Enterococcus faecalis, GC842; E. faecalis GC 842; read-out: MIC
# Summary of the method: as §1
# P. aeruginosa GC 2214 = conditions: Pseudomonas aeruginosa, GC2214; P. aeruginosa GC 2214; read-out: MIC
# E. coli GC 4559 = conditions: Escherichia coli, GC4559; E. coli GC 4559; read-out: MIC
# M. morganii GC 4531 = conditions: Morganella morganii, GC4531; M. morganii GC 4531; read-out: MIC
# E. cloacae GC 3783 = conditions: Enterobacter cloacae, GC3783; E. cloacae GC 3783; read-out: MIC
# S. marcescens GC 4077 = conditions: Serratia marcescens, GC4077; S. marcescens GC 4077; read-out: MIC
# E. coli GC 4560 = conditions: Escherichia coli, GC4560; E. coli GC 4560; read-out: MIC
SMILES,MIC (E. coli GC 2203) [µg/mL],MIC (C. albicans GC 3066) [µg/mL],MIC (E. coli GC 3226) [µg/mL],MIC (P. aeruginosa GC 4532) [µg/mL],MIC (K. pneumoniae GC 4534) [µg/mL],MIC (E. faecalis GC 4555) [µg/mL],MIC (E. faecalis GC 2242) [µg/mL],MIC (S. aureus GC 4536) [µg/mL],MIC (S. aureus GC 1131) [µg/mL],MIC (S. aureus GC 2216) [µg/mL],MIC (E. faecalis GC 842) [µg/mL],MIC (P. aeruginosa GC 2214) [µg/mL],MIC (E. coli GC 4559) [µg/mL],MIC (M. morganii GC 4531) [µg/mL],MIC (E. cloacae GC 3783) [µg/mL],MIC (S. marcescens GC 4077) [µg/mL],MIC (E. coli GC 4560) [µg/mL],"MIC (CNS GC 4538; CNS GC 4538, read-out: MIC) [µg/mL]","MIC (CNS GC 4547; CNS GC 4547, read-out: MIC) [µg/mL]","MIC (CNS GC 4537; CNS GC 4537, read-out: MIC) [µg/mL]",other results
"CCOC(=O)C(NCCCNC(=O)[C@@H](NC(=O)[C@H](CCCNC(=N)N[N+](=O)O)NC(=O)N[C@H](C(=O)OCc1ccccc1)C(C)C)[C@@H](O)C(C)C)C(O)[C@H]1O[C@@H](n2ccc(=O)[nH]c2=O)[C@H](OC(C)=O)[C@@H]1OC(C)=O (stereo partly drawn) [Example 37, 16-Benzyl 2-ethyl (1R,9S,12S,16S)-1-[(2R,3R,4R,5R)-3,4-bis(acetyloxy)-5-(2,4-dioxo-3,4-dihydro-1(2H)-pyrimidinyl)tetrahydro-2-furanyl]-12-(3-{[(2,2-dioxido-2lambda˜1˜-diazanyl)(imino)methyl]amino}propyl)-1-hydroxy-9-[(1S)-hydroxy-2-methylpropyl]-17-methyl-8,11,14-trioxo-3,7,10,13,15-pentaazaoctadecane-2,16-dicarboxylate]",> 128,> 128,> 128,> 128,> 128,> 128,128,> 128,> 128,> 128,> 128,> 128,> 128,> 128,> 128,> 128,> 128,–,–,–,MIC (CNS GC 4538): > 128 µg/mL; MIC (CNS GC 4547): > 128 µg/mL; MIC (CNS GC 4537): > 128 µg/mL
"CCOC(=O)C(NCCCNC(=O)[C@H](CC(C)C)NC(=O)OCc1ccccc1)C(OC(C)=O)[C@H]1O[C@@H](n2ccc(=O)[nH]c2=O)[C@H](OC(C)=O)[C@@H]1OC(C)=O (stereo partly drawn) [Example 38b, Ethyl (5S)-12-{(R)-(acetyloxy)[(2R,3R,4R,5R)-3,4-bis(acetyloxy)-5-(2,4-dioxo-3,4-dihydro-1(2H)-pyrimidinyl)tetrahydro-2-furanyl]methyl}-5-isobutyl-3,6-dioxo-1-phenyl-2-oxa-4,7,11-triazatridecan-13-oate]",> 128,> 128,> 128,> 128,> 128,> 128,> 128,> 128,> 128,> 128,> 128,> 128,> 128,> 128,> 128,> 128,> 128,> 128,> 128,> 128,–
"CCOC(=O)C(NCCCNC(=O)[C@H](CC(C)C)NC(=O)[C@H](CCCNC(=N)N[N+](=O)O)NC(=O)N[C@H](C(=O)OCc1ccccc1)C(C)C)C(OC(C)=O)[C@H]1O[C@H](n2ccc(=O)[nH]c2=O)[C@H](OC(C)=O)[C@@H]1OC(C)=O (stereo partly drawn) [Example 41, 19-Benzyl 5-ethyl (4R,12S,15S,19S)-4-[(2R,3R,4R,5S)-3,4-bis(acetyloxy)-5-(2,4-dioxo-3,4-dihydro-1(2H)-pyrimidinyl)tetrahydro-2-furanyl]-15-(3-{[(2,2-dioxido-2lambda˜1˜-diazanyl)(imino)methyl]amino}propyl)-12-isobutyl-20-methyl-2,11,14,17-tetraoxo-3-oxa-6,10,13,16,18-pentaazahenicosane-5,19-dicarboxylate]",> 128,128,> 128,128,> 128,> 128,128,> 128,> 128,> 128,> 128,128,> 128,> 128,> 128,> 128,> 128,–,–,–,MIC (CNS GC 4538): > 128 µg/mL; MIC (CNS GC 4547): > 128 µg/mL; MIC (CNS GC 4537): > 128 µg/mL

# Now from value to molecule, other results behind:
MIC (E. coli GC 2203) [µg/mL],MIC (C. albicans GC 3066) [µg/mL],MIC (E. coli GC 3226) [µg/mL],MIC (P. aeruginosa GC 4532) [µg/mL],MIC (K. pneumoniae GC 4534) [µg/mL],MIC (E. faecalis GC 4555) [µg/mL],MIC (E. faecalis GC 2242) [µg/mL],MIC (S. aureus GC 4536) [µg/mL],MIC (S. aureus GC 1131) [µg/mL],MIC (S. aureus GC 2216) [µg/mL],MIC (E. faecalis GC 842) [µg/mL],MIC (P. aeruginosa GC 2214) [µg/mL],MIC (E. coli GC 4559) [µg/mL],MIC (M. morganii GC 4531) [µg/mL],MIC (E. cloacae GC 3783) [µg/mL],MIC (S. marcescens GC 4077) [µg/mL],MIC (E. coli GC 4560) [µg/mL],"MIC (CNS GC 4538; CNS GC 4538, read-out: MIC) [µg/mL]","MIC (CNS GC 4547; CNS GC 4547, read-out: MIC) [µg/mL]","MIC (CNS GC 4537; CNS GC 4537, read-out: MIC) [µg/mL]",SMILES,other results
> 128,> 128,> 128,> 128,> 128,> 128,> 128,> 128,> 128,> 128,> 128,> 128,> 128,> 128,> 128,> 128,> 128,> 128,> 128,> 128,"CCOC(=O)C(NCCCNC(=O)[C@H](CC(C)C)NC(=O)OCc1ccccc1)C(OC(C)=O)[C@H]1O[C@H](n2ccc(=O)[nH]c2=O)[C@H](OC(C)=O)[C@@H]1OC(C)=O (stereo partly drawn) [Example 38a, Ethyl (5S)-12-{(R)-(acetyloxy)[(2R,3R,4R,5S)-3,4-bis(acetyloxy)-5-(2,4-dioxo-3,4-dihydro-1(2H)-pyrimidinyl)tetrahydro-2-furanyl]methyl}-5-isobutyl-3,6-dioxo-1-phenyl-2-oxa-4,7,11-triazatridecan-13-oate]",–
> 128,128,> 128,128,> 128,> 128,128,> 128,> 128,> 128,> 128,128,> 128,128,> 128,128,> 128,> 128,> 128,> 128,"CCOC(=O)C(NCCCNC(=O)[C@@H](N)CC(C)C)[C@@H](OC(C)=O)[C@H]1O[C@H](n2ccc(=O)[nH]c2=O)[C@H](OC(C)=O)[C@@H]1OC(C)=O (stereo partly drawn) [Example 39, Ethyl (3R)-3-(acetyloxy)-2-[(3-{[(2S)-2-amino-4-methylpentanoyl]amino}propyl)amino]-3-[(2R,3R,4R,5S)-3,4-bis(acetyloxy)-5-(2,4-dioxo-3,4-dihydro-1(2H)-pyrimidinyl)tetrahydro-2-furanyl]propanoate]",–
> 128,> 128,> 128,128,> 128,> 128,128,> 128,> 128,> 128,> 128,128,> 128,> 128,> 128,> 128,> 128,> 128,> 128,> 128,"CCOC(=O)C(NCCCNC(=O)[C@@H](N)CC(C)C)[C@@H](OC(C)=O)[C@H]1O[C@@H](n2ccc(=O)[nH]c2=O)[C@H](OC(C)=O)[C@@H]1OC(C)=O (stereo partly drawn) [Example 40, Ethyl (3R)-3-(acetyloxy)-2-[(3-{[(2S)-2-amino-4-methylpentanoyl]amino}propyl)amino]-3-[(2R,3R,4R,5R)-3,4-bis(acetyloxy)-5-(2,4-dioxo-3,4-dihydro-1(2H)-pyrimidinyl)tetrahydro-2-furanyl]propanoate]",–

# Reference: US6858591B2, “Antibiotic AA 896 analogs” (Wyeth Holdings Corporation, priority 2001, dated 2005)
